In patent US6127333A, “Conjugates useful in the treatment of prostate cancer” (priority 1998, dated 2000):

Target: T1, York PSA (enzymatically active free PSA) (Homo sapiens, UniProt P07288)
T1 construct: 50% cleavage of the noted oligopeptide-cytotoxic agent conjugates with enzymatically active free PSA
Test: Recognition/cleavage of oligopeptide-vinca drug conjugates by free PSA
Type: biochemical
Settings: PSA digestion buffer pH7.4, conjugate to PSA molar ratio 100 to 1, HPLC; when n > 1 value is an average
Protocol: Alternatively, the PSA digestion buffer utilized is 50 mM tris(hydroxymethyl)aminomethane pH7.4, 140 mM NaCl. The reaction is quenched after various reaction times by the addition of trifluoroacetic acid (TFA) to a final 1% (volume/volume). Alternatively the reaction is quenched with 10 mM ZnCl2. The quenched reaction was analyzed by HPLC on a reversed-phase C18 column using an aqueous 0.1%TFA/acetonitrile gradient. […] Unless otherwise indicated, the acetate salt of the conjugate was tested.

T1 sequence (P07288 25-261): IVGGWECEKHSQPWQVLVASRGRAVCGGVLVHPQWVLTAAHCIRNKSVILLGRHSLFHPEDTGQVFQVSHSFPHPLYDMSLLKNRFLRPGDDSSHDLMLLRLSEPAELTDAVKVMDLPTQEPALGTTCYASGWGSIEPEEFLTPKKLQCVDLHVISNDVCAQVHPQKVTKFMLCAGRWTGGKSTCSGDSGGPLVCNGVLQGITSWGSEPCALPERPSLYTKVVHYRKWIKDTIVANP

Substance | Time to 50% Substrate Cleavage by York PSA [min]
4-des-Acetylvinblastine-23-(N-Acetyl-Ser-Ser-Ser-Chg-Gln-Ser-Val-BDAM) amide acetate salt [Ac-SSSChgQSV-1,4-BDAM-(dAc)-VIN] | 10
4-des-Acetylvinblastine-23-(N-methoxy-diethyleneoxyacetyl-4-trans-L-Hyp-Ser-Ser-Chg-Gln-Ser-Val-BDAM) amide acetate salt | 14
